# Laboratory results as given in PubChem BioAssay (NCI).
# Values joined by “and” are separate entries in the source; they are usually repeats but may differ in a detail not shown here. Equal entries are not always repeated.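 48-hour exposure; five concentrations; linearly interpolated endpoints. GI50 marks 50% less growth. TGI denotes the concentration required for complete inhibition of growth.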
# Tests used:
# Assay in all cases: inhibition of tumour cell growth, NCI panel, 48 h
# TK-10 renal = system: TK-10 renal
# SNB-19 CNS = system: SNB-19 CNS
# CCRF-CEM leukemia = system: CCRF-CEM leukemia
# MDA-MB-231 breast = system: MDA-MB-231 breast
# OVCAR-3 ovarian = system: OVCAR-3 ovarian
# NCI-H226 lung = system: NCI-H226 lung
# RPMI-8226 leukemia = system: RPMI-8226 leukemia
# HS 578T breast = system: HS 578T breast
# NCI-H23 lung = system: NCI-H23 lung
# KM12 colon = system: KM12 colon
SMILES,GI50 (TK-10 renal),TGI (TK-10 renal),GI50 (SNB-19 CNS),TGI (SNB-19 CNS),GI50 (CCRF-CEM leukemia),TGI (CCRF-CEM leukemia),GI50 (MDA-MB-231 breast),TGI (MDA-MB-231 breast),GI50 (OVCAR-3 ovarian),TGI (OVCAR-3 ovarian),GI50 (NCI-H226 lung),TGI (NCI-H226 lung),GI50 (RPMI-8226 leukemia),TGI (RPMI-8226 leukemia),GI50 (HS 578T breast),TGI (HS 578T breast),GI50 (NCI-H23 lung),TGI (NCI-H23 lung),GI50 (KM12 colon),TGI (KM12 colon)
O=C(Nc1cccc(Oc2nnc(Cl)c3ccccc23)c1)Nc1ccc(Cl)c(C(F)(F)F)c1,2.32 µM,6.55 µM,1.26 µM,4.9 µM,0.208 µM,17.5 µM,0.358 µM,2.44 µM,0.773 µM,4.46 µM,2.14 µM,7.2 µM,0.336 µM,1.51 µM,1.72 µM,8.18 µM,0.907 µM,4.36 µM,0.701 µM,2.97 µM
CN1CCN(c2ccc3nc(-c4c(N)c5c(F)cccc5[nH]c4=O)[nH]c3c2)CC1,1.14 µM and 1.01 µM and 3.56 µM,4.95 µM and > 4.67 µM and 16.8 µM,1.9 µM and > 1.97 µM and 2.56 µM,8.89 µM and > 10 µM and 12.6 µM,0.834 µM and 0.684 µM and 1.01 µM,7.93 µM and > 5.89 µM and 9.41 µM,1.32 µM and 1.14 µM and 2.05 µM,5 µM and > 4.19 µM and 8.57 µM,1.47 µM and 1.27 µM and 3.2 µM,2.96 µM and > 8.27 µM and 8.9 µM,0.525 µM and 0.476 µM and 0.537 µM,8.36 µM and > 6.97 µM and 17.6 µM,1.17 µM and 0.909 µM and 1.57 µM,3.74 µM and > 2.77 µM and 4.53 µM,0.791 µM and 0.286 µM and 0.974 µM,5.77 µM and > 2.37 µM and 9.75 µM,1.53 µM and 0.9 µM and 2.05 µM,6.44 µM and > 3.6 µM and 11.1 µM,0.0357 µM and 0.0406 µM and 0.0407 µM,2.07 µM and > 3.51 µM and 7.5 µM
COc1ccc2c(c1)C(=O)c1c-2c(Nc2ccc(C(C)=O)cc2)nc2ccccc12,40.1 µM,> 100 µM,14.5 µM,37.3 µM,> 100 µM,> 100 µM,11.4 µM,29.5 µM,> 100 µM,> 100 µM,38.3 µM,> 100 µM,89.5 µM,> 100 µM,8.39 µM,> 100 µM,18 µM,99.2 µM,> 100 µM,> 100 µM
O=C(CN1CCN(c2ccc(Cl)cc2)CC1)N1CCN(c2nnc(-c3ccc(Cl)cc3)c(-c3ccc(Cl)cc3)n2)CC1,26.2 µM,> 100 µM,19.1 µM,63.5 µM,16.5 µM,73.9 µM,50.8 µM,> 100 µM,48.3 µM,> 100 µM,45.7 µM,> 100 µM,> 100 µM,> 100 µM,24 µM,> 100 µM,48 µM,> 100 µM,9.45 µM,> 100 µM
CC(C)(C)c1[nH]cnc1/C=c1\[nH]c(=O)/c(=C/c2ccccc2)[nH]c1=O,14.1 µM,> 100 µM,< 0.01 µM,> 100 µM,< 0.01 µM,> 68.4 µM,0.023 µM,30.9 µM,< 0.01 µM,19.2 µM,0.0275 µM,3.69 µM,< 0.0176 µM,13.2 µM,< 0.01 µM,> 71.8 µM,0.03 µM,35.2 µM,< 0.01 µM,7.44 µM
CN(C)c1ncnc2c1nnn2C1OC(CO)C(O)C1O (centres undefined),0.25 µM,> 100 µM,1.06 µM,> 100 µM,0.0662 µM,> 100 µM,0.524 µM,> 100 µM,0.308 µM,2.46 µM,4.49 µM,> 100 µM,0.16 µM,1.1 µM,0.632 µM,> 100 µM,0.399 µM,> 63.2 µM,1.07 µM,32.8 µM
CC1CCN(CCCCCOc2ccc3oc4cc(Cl)ccc4c(=O)c3c2)CC1,7.46 µM,14.8 µM,8.03 µM,15.2 µM,5.76 µM,14.2 µM,7.6 µM,14.6 µM,7 µM,14.2 µM,9.42 µM,20.2 µM,5.73 µM,15.9 µM,7.32 µM,17.8 µM,7.36 µM,14.6 µM,6.26 µM,14.4 µM
Cc1ccc(C)c(NC(=O)NCc2ccc(Cl)cc2)c1,–,69.8 µM,–,> 58.5 µM,–,> 27.6 µM,–,> 92 µM,–,> 100 µM,–,98.8 µM,–,> 100 µM,–,> 100 µM,–,> 100 µM,–,> 100 µM
O=c1cc(N2CCNCC2)oc2c(-c3ccccc3)cccc12,27.9 µM,> 100 µM,34.5 µM,> 100 µM,25.5 µM,69.5 µM,24.1 µM,> 100 µM,24.6 µM,> 100 µM,> 100 µM,> 100 µM,15.3 µM,38.5 µM,9.75 µM,> 100 µM,> 100 µM,> 100 µM,43.9 µM,> 100 µM
CCOC(=O)/C=C/c1cc2cc(-c3csc4ccccc34)ccc2[nH]1,14.4 µM,29 µM,16 µM,33.5 µM,3.04 µM,11.4 µM,5.26 µM,18.2 µM,5.34 µM,17.1 µM,10.6 µM,32.7 µM,2.87 µM,12.3 µM,5.07 µM,22.2 µM,18.3 µM,47.8 µM,2.67 µM,7.93 µM
CC(=O)c1cc2c(cc1Nc1c3ccccc3nc3occ(Cl)c13)OCO2,0.409 µM,> 100 µM,0.601 µM,> 100 µM,0.0468 µM,0.291 µM,0.283 µM,0.613 µM,0.0725 µM,0.178 µM,3.42 µM,–,0.0539 µM,0.139 µM,0.109 µM,> 69.6 µM,0.238 µM,2.23 µM,0.0556 µM,0.494 µM
